Two compounds from US20240158418A1 (C4 Therapeutics, Inc., priority 2021, published 2024) can be followed below.

Assay type in all cases: cell-based
One experiment has as its target T1, EGFR L858R-T790M (Homo sapiens, UniProt P00533, L858R/T790M).
T1 construct: NCI-H1975 (harboring EGFR heterozygous L858R-T790M mutations); host or cells: NCI-H1975
The experiment in a line: EGFR degradation, Total EGFR (L858R-specific) HTRF, NCI-H1975. The settings on record: 6 hours. The method, boiled down:
(§1)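 HTRF read-outs: pY1068 phospho-EGFR for IC50; total EGFR (pan-EGFR in A431, L858R-specific in mutant lines) for DC50. Compounds were titrated 11 points, half-log, from 10 μM in duplicate onto cells in 10% FBS RPMI, incubated 6 h at 37°C.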

A further experiment deals with T2, EGFR L858R-T790M-C797S (Homo sapiens, UniProt P00533, C797S/L858R/T790M).
T2 construct: generated using CRISPR technology to introduce the additional C797S mutation by Horizon Discovery; host or cells: NCI-H1975+CS (CRISPR knock-in of C797S)
T2 sequence (P00533 25-1210 T790M/C797S/L858R): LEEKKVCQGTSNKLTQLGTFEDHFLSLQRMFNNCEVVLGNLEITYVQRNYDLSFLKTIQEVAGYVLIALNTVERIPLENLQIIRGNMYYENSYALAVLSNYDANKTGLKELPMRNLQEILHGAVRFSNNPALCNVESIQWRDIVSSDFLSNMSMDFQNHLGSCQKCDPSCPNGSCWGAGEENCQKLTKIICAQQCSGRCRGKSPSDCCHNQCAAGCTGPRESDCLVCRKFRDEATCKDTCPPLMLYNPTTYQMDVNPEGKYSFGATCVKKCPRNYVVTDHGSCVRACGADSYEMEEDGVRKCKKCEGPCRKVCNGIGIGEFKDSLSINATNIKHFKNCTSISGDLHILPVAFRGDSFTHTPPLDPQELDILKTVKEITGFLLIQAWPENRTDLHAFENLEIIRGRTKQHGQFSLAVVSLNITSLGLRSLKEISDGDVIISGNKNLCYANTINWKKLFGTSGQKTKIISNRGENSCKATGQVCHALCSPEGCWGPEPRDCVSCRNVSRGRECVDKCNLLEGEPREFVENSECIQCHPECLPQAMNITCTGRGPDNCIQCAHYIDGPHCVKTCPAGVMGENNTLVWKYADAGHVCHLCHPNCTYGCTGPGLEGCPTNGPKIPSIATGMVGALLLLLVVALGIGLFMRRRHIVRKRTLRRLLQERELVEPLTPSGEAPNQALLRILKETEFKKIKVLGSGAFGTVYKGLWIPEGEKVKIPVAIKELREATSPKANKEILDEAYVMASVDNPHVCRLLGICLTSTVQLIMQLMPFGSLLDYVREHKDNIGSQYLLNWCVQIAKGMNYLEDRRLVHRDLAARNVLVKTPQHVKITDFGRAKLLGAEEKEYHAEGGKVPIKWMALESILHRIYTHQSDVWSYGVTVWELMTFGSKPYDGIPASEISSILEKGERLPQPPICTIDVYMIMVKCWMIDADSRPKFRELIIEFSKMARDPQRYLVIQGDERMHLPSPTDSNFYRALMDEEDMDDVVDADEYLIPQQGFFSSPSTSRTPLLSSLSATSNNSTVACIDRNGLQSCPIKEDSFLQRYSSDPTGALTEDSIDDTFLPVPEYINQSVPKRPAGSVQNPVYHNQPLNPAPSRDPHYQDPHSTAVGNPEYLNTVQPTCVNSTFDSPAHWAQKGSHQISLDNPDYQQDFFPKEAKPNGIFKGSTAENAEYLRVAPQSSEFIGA
The experiment in a line: EGFR degradation, Total EGFR (L858R-specific) HTRF, NCI-H1975+CS. Particulars: 6 hours. Summed up: as §1

In another experiment the target is T3, pY1068 EGFR L858R-T790M (Homo sapiens, UniProt P00533, L858R/T790M).
T3 construct: NCI-H1975 (harboring EGFR heterozygous L858R-T790M mutations); host or cells: NCI-H1975
T3 sequence (P00533 25-1210 T790M/L858R): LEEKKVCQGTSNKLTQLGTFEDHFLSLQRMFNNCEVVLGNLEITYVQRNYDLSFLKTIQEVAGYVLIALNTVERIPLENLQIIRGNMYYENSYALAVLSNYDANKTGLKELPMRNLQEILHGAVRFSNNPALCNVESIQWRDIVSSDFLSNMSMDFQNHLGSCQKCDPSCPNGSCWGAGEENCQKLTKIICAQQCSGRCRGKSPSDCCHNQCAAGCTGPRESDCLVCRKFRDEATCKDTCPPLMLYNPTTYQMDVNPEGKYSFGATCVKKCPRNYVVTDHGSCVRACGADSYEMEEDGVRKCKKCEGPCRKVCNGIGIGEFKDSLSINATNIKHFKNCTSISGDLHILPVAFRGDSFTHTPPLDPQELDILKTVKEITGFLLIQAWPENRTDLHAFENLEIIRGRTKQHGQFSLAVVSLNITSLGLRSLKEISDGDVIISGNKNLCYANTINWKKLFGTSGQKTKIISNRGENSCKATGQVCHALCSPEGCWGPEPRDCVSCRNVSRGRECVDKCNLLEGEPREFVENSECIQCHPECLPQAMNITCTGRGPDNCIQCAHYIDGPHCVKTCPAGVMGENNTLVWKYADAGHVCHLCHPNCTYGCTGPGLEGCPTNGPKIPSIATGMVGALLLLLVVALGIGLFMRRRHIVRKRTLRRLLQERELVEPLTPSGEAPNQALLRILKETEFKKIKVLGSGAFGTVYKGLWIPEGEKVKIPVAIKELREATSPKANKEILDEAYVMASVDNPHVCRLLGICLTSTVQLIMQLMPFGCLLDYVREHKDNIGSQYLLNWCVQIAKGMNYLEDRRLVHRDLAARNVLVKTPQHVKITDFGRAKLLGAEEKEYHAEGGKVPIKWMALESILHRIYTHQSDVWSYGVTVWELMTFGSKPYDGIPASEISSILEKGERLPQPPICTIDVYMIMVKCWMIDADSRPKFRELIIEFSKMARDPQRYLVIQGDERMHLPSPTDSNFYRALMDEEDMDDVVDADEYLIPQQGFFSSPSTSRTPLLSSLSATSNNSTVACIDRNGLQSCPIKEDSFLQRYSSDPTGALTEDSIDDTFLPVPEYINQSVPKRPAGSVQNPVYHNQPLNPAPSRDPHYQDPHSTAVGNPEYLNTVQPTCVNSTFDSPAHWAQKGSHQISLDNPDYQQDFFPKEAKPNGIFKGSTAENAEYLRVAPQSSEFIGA
The experiment in a line: Phospho-EGFR (pY1068) inhibition HTRF, NCI-H1975. Particulars: 6 hours, read-out: pEGFR IC50. The method, boiled down: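 Compound is titrated from 10 μM (11 points, half-log, duplicates), and cells in assay medium (RPMI 1640 no-phenol red, 10% FBS) are added and kept 6 h at 37 °C, 5% CO2. HTRF antibodies then detect pY1068 EGFR for IC50, or total EGFR via pan-EGFR antibody in A431 for DC50.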

The subject of experiment [1] is BaF3 cells expressing EGFR L858R. The experiment in a line: Ba/F3 EGFR cell viability (CellTiter-Glo), L858R. Particulars: Mus musculus, read-out: CTGlo (GI50). An excerpt:
(§2) RPMI 1640 media, cell culture flasks, and 384-well microplates were purchased from VWR (Radnor, PA, USA). Fetal bovine serum (FBS) was purchased from Life Technologies (Carlsbad, CA, USA) and CellTiter-Glo® was purchased from Promega (Madison, WI, USA). The Ba/F3 parental cell line was purchased from CrownBio (Santa Clara, CA). BaF3 cell lines ectopically expressing the EGFR mutations L858R, L858R-T790M, L858R-C797S, and L858R-T790M-C797S were purchased from CrownBio and EGFR mutations L858R-L718Q, L858R-T790M-L718Q, L858R-L792H, and L858R-T790M-L792H, were purchased from Signosis (Santa Clara, CA).
(§3) Cell viability was assessed based on the quantification of ATP using the CellTiter-Glo® assay (Promega, Madison, WI, USA). To determine the effect of compounds on cell viability, all Ba/F3 cell lines were plated at a cell density of 2000 cells/well in 384-well plates using RPMI 1640+10% FBS and treated with compounds of interest using a 10-point half-log dilution series in duplicate for 72 hours, with the highest dose set at […]. CellTiter-Glo® reagent was then added and luminescence signals were measured using an EnVision™ Multimode plate reader (Perkin Elmer, Santa Clara, CA). For data normalization, cells untreated with the test compounds at Time=72 hours were set to 100% (equivalent to maximal cell growth after 72 hours); cells untreated with the test compounds at Time=0 hours were set to 0% (equivalent to cytostasis); and media-only wells were set to −100% (equivalent to complete cytotoxicity). % Viability was determined by normalizing the signal with positive and DMSO treated negative controls on the same microtiter plate. The half-maximal inhibition of cell growth (GI50) is computed from where the fitted curve crosses 50% while the half-maximal lethal dose (LD50) is computed from where the fitted curve crosses −50%.

The test system of experiment [2] is BaF3 cells expressing EGFR L858R-T790M. The experiment in a line: Ba/F3 EGFR cell viability (CellTiter-Glo), L858R-T790M. Particulars: Mus musculus, read-out: CTGlo (GI50).
Excerpt: as §2, §3

Experiment [3] relates to BaF3 cells expressing wild-type EGFR. The experiment in a line: Ba/F3 EGFR cell viability (CellTiter-Glo), wild-type EGFR. The settings on record: Mus musculus, Ba/F3 WT EGFR, read-out: CTGlo (GI50).
Experiment [4] concerns BaF3 cells expressing EGFR L858R-L718Q. The experiment in a line: Ba/F3 EGFR cell viability (CellTiter-Glo), L858R-L718Q. The settings on record: Mus musculus, read-out: CTGlo (GI50).
Excerpt: as §2, §3

For experiment [5], the system named is BaF3 cells expressing EGFR L858R-T790M-L718Q. The experiment in a line: Ba/F3 EGFR cell viability (CellTiter-Glo), L858R-T790M-L718Q. The settings on record: Mus musculus, read-out: CTGlo (GI50).
Excerpt: as §2, §3

[6] abbreviates: H1975 (L858R-T790M), read-out: tEGFR DC50.
Setting [7] is: Table 9A, NCI-H1975 cells, Total EGFR HTRF, read-out: H1975 EGFR DC50.
[8] abbreviates: H1975 + CS (L858R-T790M-C797S), read-out: tEGFR DC50.
[9] abbreviates: Table 9A, NCI-H1975+CS cells, Total EGFR HTRF, read-out: H1975+ CS EGFR DC50.

pIC50: −log10 of the molar value. Where two headings read alike, the source gives them in different places.

T1 sequence (P00533 25-1210 T790M/L858R): as above

Turning to `O=C1CC[C@H](Nc2ccc(N3CCC(O)(CC(=O)N4CC5(C4)CN(c4ccc(-c6cc(F)c7c(c6)C(=O)N(C(C(=O)Nc6nccs6)c6ncn8c6CCC8)C7)cc4)C5)CC3)c(F)c2)C(=O)N1` (stereo partly drawn) [Compound 1, 2-(6,7-dihydro-5H-pyrrolo[1,2-c]imidazol-1-yl)-2-[6-[4-[2-[2-[1-[4-[[(3S)-2,6-dioxo-3-piperidyl]amino]-2-fluoro-phenyl]-4-hydroxy-4-piperidyl]acetyl]-2,6-diazaspiro[3.3]heptan-6-yl]phenyl]-4-fluoro-1-oxo-isoindolin-2-yl]-N-thiazol-2-yl-acetamide], the DC50 is 8 nM on EGFR L858R-T790M (setting [6]), below 50 nM at EGFR L858R-T790M (setting [7]), 12 nM at EGFR L858R-T790M-C797S (setting [8]) and below 50 nM at EGFR L858R-T790M-C797S (setting [9]). The pIC50 at pY1068 EGFR L858R-T790M is 8.05. Also, the GI50 is 12 nM in experiment [1]; 9 nM in experiment [2]; 1620 nM in experiment [3]; 24 nM in experiment [4]; 44 nM in experiment [5].
In the case of `Cn1nc(N2CCC(=O)NC2=O)c2ccc([C@H]3CCN(CC(=O)N4CC5(C4)CN(c4ccc(-c6cc(F)c7c(c6)C(=O)N(C(C(=O)Nc6nccs6)c6ncn8c6CCC8)C7)cc4)C5)CC3(F)F)cc21` (stereo partly drawn) [Compound 2, 2-(6,7-dihydro-5H-pyrrolo[1,2-c]imidazol-1-yl)-2-[6-[4-[2-[2-[(4R)-4-[3-(2,4-dioxohexahydropyrimidin-1-yl)-1-methyl-indazol-6-yl]-3,3-difluoro-1-piperidyl]acetyl]-2,6-diazaspiro[3.3]heptan-6-yl]phenyl]-4-fluoro-1-oxo-isoindolin-2-yl]-N-thiazol-2-yl-acetamide], the half-maximal degradation concentration (DC50) at EGFR L858R-T790M (setting [6]) is 12 nM; on EGFR L858R-T790M (setting [7]), below 50 nM; on EGFR L858R-T790M-C797S (setting [8]), 19 nM; on EGFR L858R-T790M-C797S (setting [9]) it was below 50 nM. Moreover, the pIC50 at pY1068 EGFR L858R-T790M was 7.85. The GI50 in experiment [1] was found to be 3 nM; in experiment [2] it was 6 nM; in experiment [3], 310 nM; in experiment [4], 6 nM; in experiment [5], 22 nM.
